Source: US20220185793A1, “COMPOUNDS FOR THE TREATMENT OF ONCOVIRUS INDUCED CANCER AND METHODS OF USE THEREOF” (Cellestia Biotech AG, priority 2019, published 2022)

How the values were obtained:
[1] = test system: CD21; test: EBV target gene downregulation (qPCR) in HG-3 cells: CD21; format: cell-based; settings: Homo sapiens, mRNA by qPCR
Procedure: (§1) One million human EBV positive lymphoma cell lines HG3 and LCL070903 (Rosén et al., 2012) were cultured in RPMI1640 media supplemented with 10% FCS. For RNA expression analysis cells were treated with compounds at 10 μM concentration and for proliferation assay cells were treated at a concentration range of 0.01-100 μM. Following treatment cells were harvested and washed with 1× PBS. Total RNA was extracted as described below.
(§2) Total RNA was extracted from cells using TRIzol® extraction kit (Invitrogen). Briefly, 1×10^6 cells were washed with ice-cold 1× PBS and lysed in 1 ml of TRIzol® solution for 5 minutes at room temperature to dissociate nucleoprotein complexes. Lysed cells were then treated with 200 μl of chloroform and shaked vigorously for 15-30 seconds and incubated at room temperature for 2-3 minutes. […]
(§3) In first protocol, SuperScript™ RT (Invitrogen) was used for reverse transcription reaction. RNA concentration was measured using NanoDrop®ND-1000 spectrophotometer (Witec AG) and 500 ng of total RNA was mixed with a 10 mM mix of dNTPs and 100 ng of random primers. […]
(§4) In second protocol, reverse transcription was performed using PrimeScript RT Master Mix (Takara). RNA concentration was measured using NanoDrop®ND-1000 spectrophotometer (Witec AG) and 1 μg of total RNA was mixed with 4 μL 5X PrimeScript RT Master Mix in a total reaction volume of 20 μL. […]

[2] = test system: BMI1 (EBV target gene); test: EBV target gene downregulation (qPCR) in HG-3 cells: BMI1; format: cell-based, human; settings: 48 hours; for potency in downregulating EBV pathway (BMI1) compared with 6-(4-tert-butylphenoxy)pyridin-3-amine (in words): 10 μM, qRT-PCR, FIG. 4; for inhibition at 10 µM: Homo sapiens, mRNA by qPCR, Table 5
Procedure: EBV positive human B HG-3 cells were treated with 10 μM of the mentioned compounds for 48 hours. Following treatment, total RNA was extracted and mRNA expression analysed by qRT-PCR.
as §1
(§5) Total RNA was extracted from cells using TRIzol® extraction kit (Invitrogen). Briefly, 1×10^6 cells were washed with ice-cold 1× PBS and lysed in 1 ml of TRIzol® solution for 5 minutes at room temperature to dissociate nucleoprotein complexes. Lysed cells were then treated with 200 μl of chloroform and shaked vigorously for 15-30 seconds and incubated at room temperature for 2-3 minutes. The samples were centrifuged at 14000 rpm using Eppendorf table top centrifuge for 10 minutes at 4° C. Following centrifugation, upper aqueous phase was transferred to new eppendorf tubes. To precipitate total RNA 500 μl of […] was added to the separated aqueous phase and incubated at room temperature for 10 minutes. A RNA pellet was obtained by centrifuging the samples at 4° C. for 10 minutes. RNA pellet obtained was washed with 1 ml ice cold 75% ethanol and spun down at 14000 rpm at 4° C. RNA pellet was dried off of excess of ethanol and resuspended in 40 IA DPEC water.
(§6) Total RNA extracted from the cell was used to synthesize cDNA by reverse transcription reaction. Reverse transcription was performed according to one of the two following protocols.
(§7) In first protocol, SuperScript™ RT (Invitrogen) was used for reverse transcription reaction. RNA concentration was measured using NanoDrop®ND-1000 spectrophotometer (Witec AG) and 500 ng of total RNA was mixed with a 10 mM mix of dNTPs and 100 ng of random primers. The reaction mix was incubated at 65° C. for 5 minutes and quickly incubated on ice for 1 minute. Following incubation on ice, 5× first strand buffer and 0.1M DTT were added and mix was incubated for 2 minutes at 25° C. To start the reverse transcription reaction, 200U of SuperScrip™ II RT was added to the reaction mix and incubated at 42° C. for 50 minutes. The reaction was stopped by incubating the reaction mix at 75° C. for 15 minutes.
(§8) In second protocol, reverse transcription was performed using PrimeScript RT Master Mix (Takara). RNA concentration was measured using NanoDrop®ND-1000 spectrophotometer (Witec AG) and 1 μg of total RNA was mixed with 4 μL 5X PrimeScript RT Master Mix in a total reaction volume of 20 μL. The reaction mix was incubated at 37° C. for 15 minutes followed by heat inactivation at 85° C. for 5 seconds.
(§9) QRT-PCR was carried out using 7900 HT Fast Real-Time PCR system (Applied Biosystems) or QuantStudio 3 system (ThermoFisher). Briefly, 12.5 ng of template cDNA was used with a primer concentration of 0.5 μM each and lx SYBR Green dye in a final volume of 10 μL in a 96 well or 384 well plate format.
(§10) Upon infection of human cells, EBV is known to induce cancerous transformation of cells via upregulation of host as well as viral genes (e.g LMP1, EBNA2, BATF1, BMI1 and CD21). To determine the ability of compounds to downregulate EBV driven gene expression, HG-3 and LCL070903 cells were treated with selected compounds and percentage inhibition of EBV target genes was determined by quantitative PCR. As shown in Table 5 and Table 6, compounds down regulate EBV target genes such as BMI1 in HG-3 and LCL070903 cells, respectively (FIGS. 3 and 4).

[3] = test system: BMI1 (EBV target gene); test: EBV target gene downregulation (qPCR) in LCL070903 cells: BMI1; format: cell-based, human; settings: 48 hours; for potency in downregulating EBV pathway (BMI1) compared with 6-(4-tert-butylphenoxy)pyridin-3-amine (in words): 10 μM, qRT-PCR, FIG. 3; for inhibition at 10 µM: Homo sapiens, mRNA by qPCR, Table 6
Procedure: EBV positive human B LCL070903 cells were treated with 10 μM of the mentioned compounds for 48 hours. Following treatment, total RNA was extracted and mRNA expression analysed by qRT-PCR.
as §1, §5, §6, §7, §8, §9, §10

[4] = test system: EBV positive human B HG-3 cells; test: PrestoBlue proliferation assay in HG-3 cells; format: cell-based; settings: 72 hours; for anti-proliferative effect on HG-3 cells (in words): PrestoBlue, FIG. 2 and Table 4; for IC50: Homo sapiens, concentration range 0.03-100 μM, PrestoBlue assay, read-out: Anti-proliferative IC50 values (μM) in HG-3 cells
Procedure: (§11) One million human EBV positive lymphoma cell lines HG3 and LCL070903 (Rosén et al., 2012) were cultured in RPMI1640 media supplemented with 10% FCS. […] Following treatment cells were harvested and washed with 1× PBS. Total RNA was extracted as described below.
(§12) Alamarblue® and PrestoBlue proliferation assays were performed to determine the growth kinetics of EBV inhibitor treated cells. Alamar blue® and PrestoBlue consists of a cell permeable substrate resazurin. In metabolically active and proliferating cells, resazurin is converted to resorufin due to an intrinsic reducing power of live cells and produces a red fluorescence. Therefore production of resorufin serves as an indicator of the viability of the cell population.
(§13) Proliferation assays were performed by seeding 5000 cells/well in a 96 well plate. […] Each concentration was tested in 4 replicates. To determine the growth kinetics, 10 μl of Alamar blue® or PrestoBlue (Invitrogen) was added to each well and incubated for 4 hours. Readout was taken using Tecan F500 (Tecan) multiplate reader or Varioskan LUX (ThermoFisher) multiplate reader.
In brief, HG-3 cells were plated in a 96 well plate and treated with an increasing concentration of compounds.

[5] = test system: CD21; test: EBV target gene downregulation (qPCR) in LCL070903 cells: CD21; format: cell-based; settings: Homo sapiens, mRNA by qPCR, Table 6
Procedure: as §1
as §5, with “A RNA pellet was obtained by centrifuging the samples at 4° C. for 10 minutes. RNA pellet obtained was washed with 1 ml ice cold 75% ethanol and spun down at 14000 rpm at 4° C. RNA pellet was dried off of excess of ethanol and resuspended in 40 IA DPEC water.” left out
as §3, §4
Upon infection of human cells, EBV is known to induce cancerous transformation of cells via upregulation of host as well as viral genes (e.g LMP1, EBNA2, BATF1, BMI1 and CD21). To determine the ability of compounds to downregulate EBV driven gene expression, HG-3 and LCL070903 cells were treated with selected compounds and percentage inhibition of EBV target genes was determined by quantitative PCR. […]

[6] = test system: EBV positive human lymphoma HG-3 cells; test: Alamar blue proliferation assay in HG-3 cells; format: cell-based; settings: 72 hours; for anti-proliferative effect on HG-3 cells (in words): Alamar blue, FIG. 1 and Table 1; for IC50: Homo sapiens, concentration range 0.01-10 μM, Alamar blue assay, read-out: Anti-proliferative IC50 values
Procedure: as §11, §12, §13
In order to determine anti-cancer activity of compounds in oncoviral driven cells, an EBV infected human Chronic Lymphocytic Leukemia cell line HG-3 was used (Rosen et al., 2012). In brief, HG-3 cells were plated in a 96 well plate and treated with an increasing concentration of compounds.

[7] = test system: BATF1; test: EBV target gene downregulation (qPCR) in HG-3 cells: BATF1; format: cell-based; settings: Homo sapiens, mRNA by qPCR, Table 2
Procedure: as §1, §2, §3, §4

[8] = test system: NOTCH target gene HES1; test: NOTCH target gene HES1 downregulation in RPMI 8402 cells; format: cell-based, human; parameters: Percentage inhibition of NOTCH target gene HES1: concentration or dose not given beside the values; settings: RPMI 8402 cells (NOTCH1 positive, EBV negative)
Procedure: as §5, §6, §9
(§14) To determine the ability of compounds to downregulate EBV driven gene expression, HG-3 cells were treated with selected compounds and percentage inhibition of EBV target genes was determined by quantitative PCR. […] To further determine the anti-oncoviral specificity of compounds, these compounds were tested for their ability to downregulate a NOTCH target gene HES1 in a NOTCH1 positive (EBV negative) human leukemic cell line RPMI8402.

[9] = test system: EBNA2; test: EBV target gene downregulation (qPCR) in HG-3 cells: EBNA2; format: cell-based; settings: Homo sapiens, mRNA by qPCR
Procedure: as §1, §5, §6, §7, §8, §9, §14, §10

[10] = test system: LMP1; test: EBV target gene downregulation (qPCR) in LCL070903 cells: LMP1; format: cell-based; settings: Homo sapiens, mRNA by qPCR, Table 6
Procedure: as §1, §2, §3, §4

[11] = test system: EBNA2; test: EBV target gene downregulation (qPCR) in LCL070903 cells: EBNA2; format: cell-based; settings: Homo sapiens, mRNA by qPCR, Table 6
Procedure: as §1, §5, §6, §7, §8, §9, §10

[12] = test system: LMP1; test: EBV target gene downregulation (qPCR) in HG-3 cells: LMP1; format: cell-based; settings: Homo sapiens, mRNA by qPCR, Table 2
Procedure: as §1, §5, §6, §7, §4
(§15) To determine the ability of compounds to downregulate EBV driven gene expression, HG-3 cells were treated with selected compounds and percentage inhibition of EBV target genes was determined by quantitative PCR. […]

[13] = test system: RUNX3; test: EBV target gene downregulation (qPCR) in HG-3 cells: RUNX3; format: cell-based; settings: Homo sapiens, mRNA by qPCR, Table 2
Procedure: as §1, §5, §6, §7, §4, §15

SMILES | inhibition at 10 µM ([1]; Table 5) | potency in downregulating EBV pathway (BMI1) compared with 6-(4-tert-butylphenoxy)pyridin-3-amine (in words) [2] | inhibition at 10 µM [2] | potency in downregulating EBV pathway (BMI1) compared with 6-(4-tert-butylphenoxy)pyridin-3-amine (in words) [3] | inhibition at 10 µM [3] | anti-proliferative effect on HG-3 cells (in words) [4] | IC50 [4] | inhibition at 10 µM [5] | anti-proliferative effect on HG-3 cells (in words) [6] | IC50 [6] | inhibition at 10 µM [7] | inhibition at 10 µM ([1]; Table 2) | Percentage inhibition of NOTCH target gene HES1 [8] | downregulation of NOTCH target gene HES1 (in words) [8] | inhibition at 10 µM ([9]; Table 5) | inhibition at 10 µM [10] | inhibition at 10 µM [11] | inhibition at 10 µM [12] | inhibition at 10 µM [13] | inhibition at 10 µM ([9]; Table 2)
OC(c1ccc(NCc2cccnc2)cc1)c1ccc(-c2ccc(F)cc2)cc1 (centres unmarked) [Example 30, (4′-Fluoro-[1,1′-biphenyl]-4-yl)(4-((pyridin-3-ylmethyl)amino)phenyl)methanol] | 10% | enhanced potency | 31% | enhanced potency | 54% | – | – | – | – | – | – | – | – | – | – | – | – | – | – | –
c1cncc(CNc2ccc(Oc3ccc(-c4cncs4)cc3)nc2)c1 [Example 27, N-(pyridin-3-ylmethyl)-6-(4-(thiazol-5-yl)phenoxy)pyridin-3-amine] | – | enhanced potency | – | enhanced potency | 66% | demonstrate anti-proliferative effect | 1.9 µM | 22% | – | – | – | – | – | – | – | – | – | – | – | –
CC(C)(C)c1ccc(Oc2ccc(NCc3cccnc3)cn2)cc1 [Example 2, 6-(4-(tert-Butyl)phenoxy)-N-(pyridin-3-ylmethyl)pyridin-3-amine] | – | – | – | – | – | – | – | – | demonstrate anti-proliferative effect | 2200 nM | > 90% | > 90% | 0% | do not modulate expression of this gene | – | – | – | – | – | –
Cc1ccccc1-c1ccc(Oc2ccc(NCc3cccnc3)cc2)cc1C [Example 28, 4-((2,2′-Dimethyl-[1,1′-biphenyl]-4-yl)oxy)-N-(pyridin-3-ylmethy)aniline] | – | enhanced potency | 51% | enhanced potency | 61% | demonstrate anti-proliferative effect | 1.5 µM | 1% | – | – | – | – | – | – | 36% | 24% | 43% | – | – | –
c1ccc(-c2ccc(Oc3ccc(NCc4cccnc4)cn3)cn2)cc1 [Example 21, 6-((6-Phenylpyridin-3-yl)oxy)-N-(pyridin-3-ylmethyl)pyridin-3-amine] | – | enhanced potency | 47% | enhanced potency | 51% | demonstrate anti-proliferative effect | 3.8 µM | 9% | – | – | – | – | – | – | – | 12% | 50% | – | – | –
CC(C)(C)c1ccc(Oc2ccc(NCc3ccccn3)cn2)cc1 [Example 3, 6-(4-(tert-Butyl)phenoxy)-N-(pyridin-2-ylmethyl)pyridin-3-amine] | – | – | – | – | – | – | – | – | demonstrate anti-proliferative effect | 5400 nM | – | – | 0% | do not modulate expression of this gene | – | – | – | 37% | 55% | 16%
CC(C)(C)c1ccc(Oc2ccc(NCc3cnc(N)nc3)cn2)cc1 [Example 5, 5-(((6-(4-(tert-Butyl)phenoxy)pyridin-3-yl)amino)methyl)pyrimidin-2-amine] | – | – | – | – | – | – | – | – | demonstrate anti-proliferative effect | 4800 nM | – | – | 0% | do not modulate expression of this gene | – | – | – | 22% | 57% | 46%
